Experimental data published in US8822541B2, “Use of targeted nitroxide agents in mitigating or treating radiation injury” (University of Pittsburgh—Of the Commonwealth System of …, priority 2008, dated 2014).
Entries after “also recorded” stand apart in the source; their conditions may differ.

What was measured:
[1] = system: MEF cells from Ercc1−/− mice; test: Senescence, DNA damage, apoptosis and proliferation in Ercc1−/− MEF cells under oxidative stress; type: cell-based, mouse; conditions: for γ-H2AX immunostaining: 1 μM, 48 hours; for γ-H2AX immunostaining / level of p16: 20% oxygen; for level of p16: 1 uM, 48 hrs
Method: Graphs showing weight over time of treated, untreated and control animals are shown in FIG. 36A-B. To assess the impact of XJB-5-131 at a cellular level, a number of experiments were carried out using mouse embryonic fibroblasts (“MEF”) cells harvested from Ercc1^−/− mouse embryos.
To test the protective activity of JP4-039, cultures of primary MEFs were prepared from Ercc1^−/− mouse embryos and grown under 20% oxygen (ambient air), which creates oxidative stress in these cells that are hypersensitive to reactive oxygen species. The cells were then either treated with a concentration of 1 uM XJB-5-131, JP4-039, JED-E71-37 or JED-E71-58, or left untreated (media), and then after 48 hrs the level of p16, a marker of irreversible cellular senescence, was measured by immunofluorescence staining.
To evaluate the protective activities of JED-E71-37 and JED-E71-58, primary MEF cells were prepared from Ercc1^−/− mice and grown under conditions of oxidative stress (ambient air, 20% oxygen). The cells were then either untreated or treated with 1 μM JED-E71-37 or JED-E71-58 for a period of 48 hours.
Next, the abilities of these two agents, as well as XJB-5-131 and JP4-039, each at a concentration of 1 μM, were tested for their ability to prevent oxidation-induced DNA double-strand breaks in cell cultures prepared, and oxidatively stressed, as in the preceding paragraph. Treated as well as untreated cells were, after 48 hours of treatment, immunostained for γ-H2AX, a marker of DNA double-strand breaks as well as cellular senescence.

[2] = system: MEF cells from Ercc1−/− mouse embryos; test: Toxicity of JP4-039 in Ercc1−/− MEF cultures; type: cell-based; conditions: up to 10 μM
Method: To assess the therapeutic potential of JP4-039, tests for safety and protective activity were performed. FIGS. 35 and 36 show the results of tests to evaluate whether varying concentrations of JP4-039 produce toxic effects after 48 hours in cultures of MEF cells prepared from Ercc1^−/− or wild-type mouse embryos, respectively.

rat ileal mucosa = test: Peroxidation of phospholipids in intestinal mucosa after hemorrhagic shock; type: in vivo; conditions: 10 μM intraluminal, 2 h HS
Source text: Assay for peroxidation of phospholipids. Gut mucosal samples were homogenized. Lipids were extracted from homogenates using the Folch procedure, see M. Lees and G. H. Sloan-Stanley, A simple method for isolation and purification of total lipids from animal tissue, J. BIOL. CHEM. 226:497-509 (1957), and resolved by 2D HPTLC (High Performance Thin Layer Chromatography) as previously described, see Kagan, V. E. et al., A role for oxidative stress in apoptosis: Oxidation and externalization of phosphatidylserine is required for macrophage clearance of cell undergoing Fas-mediated apoptosis, J Immunol, 2002, 169:487-489. Spots of phospholipids'were scraped from HPTLC plates and phospholipids were extracted from silica. Lipid phosphorus was determined by a micro-method, see Bottcher, C. J. F. et al., A rapid and sensitive sub-micro phosphorus determination, Anal Chim Acta. 1961, 24: 203-204.
Oxidized phospholipids were hydrolyzed by pancreatic phospholipase A2 (2 U/μl) in 25 mM phosphate buffer containing 1 mM CaCl2, 0.5 mM EDTA and 0.5 mM sodium dodecyl sulfate (SDS) (pH 8.0, at room temperature for 30 min). Fatty acid hydroperoxides formed were determined by fluorescence HPLC of resorufin stoichiometrically formed during their microperoxidase 11-catalized reduction in presence of Amplex Red (for 40 min at 4° C.) (8). Fluorescence HPLC (Eclipse XDB-C18 column, 5 μm, 150×4.6 mm, mobile phase was composed of 25 mM disodium phosphate buffer (pH 7.0)/methanol (60:40 v/v); excitation wavelength 560 nm, emission wavelength 590 nm) was performed on a Shimadzu LC-100AT HPLC system equipped with fluorescence detector (RF-10Axl) and autosampler (SIL-10AD).
In the subsequent series of in vivo studies, the affect of intraluminal XJB-5-131 on hemorrhage-induced peroxidation of phospholipids in intestinal mucosa was examined. […] In a preferred embodiment, 0.3 mL of test solution filled the lumen of each ileal compartment.
After two hours of HS, samples of ileal mucosa from the gut sacs filled with the vehicle and XJB-5-131 were obtained and compared with ileal mucosa of normal MECs. […]

Ercc1−/Δ mice = test: Signs of aging in progeroid Ercc1−/Δ mice; type: in vivo, mouse; conditions: 2 mg/kg ip three times per week
Method: To assess the effectiveness of XJB-5-131 in inhibiting degeneration and/or signs of aging, the compound was administered, over an 18-21 week period, progeroid
Ercc1^−/Δ mice, at a dose of 2 mg/kg in sunflower oil carrier (to promote solubility) administered intraperitoneally three times per week (FIG. 32). Sunflower seed oil was administered to twin Ercc1^−/Δ mice according to the same schedule as a control. The treated and control mice were monitored twice a week for weight and symptom/sign development.
FIG. 33 presents a summary table showing the results of the treatment with XJB-5-131 (“XJB” in this Figure), relative to control (sunflower seed oil) after treatment from 5 wks of life until death. The numbers indicate the average age at onset of each age-related symptom for mice treated with XJB-5-131 or vehicle only (oil) (n=5 mice per group). […] Of note, all of the signs of neurodegeneration, including dystonia, trembling, ataxia, wasting and urinary incontinence were delayed in the treated animals, providing strong evidence that XJB-5-131 protects neurons against degenerative changes caused by oxidative stress.
To assess the ability of XJB-5-131 to inhibit deterioration of intervertebral discs (an index of degenerative disease of the vertebra), the level of glycosaminoglycan in the discs in treated and control mice were measured, and the results are shown in FIG. 34. The intervertebral discs of treated mice contained approximately 30 percent more glycosaminoglycan relative to control mice, indicating inhibition of disc degeneration.

SMILES | γ-H2AX immunostaining [1] | level of p16 [1] | cellular proliferation relative to untreated control cells ([2]; Ercc1−/− or wild-type MEF) | toxicity ([2]; 48 hours) | peroxidation of phosphatidylcholine (PC) (rat ileal mucosa) | peroxidation of phosphatidylethanolamine (PE) (rat ileal mucosa) | peroxidation of phosphatidylserine (PS) (rat ileal mucosa) | SA-β galactosidase staining ([1]; 500 nM) | amount of apoptosis ([1]; 500 nM) | number of γH2AX foci ([1]; 500 nM) | body weight (Ercc1−/Δ mice) | glycosaminoglycan in intervertebral discs relative to control mice (Ercc1−/Δ mice) | onset of signs of neurodegeneration (dystonia, trembling, ataxia, wasting, urinary incontinence) (Ercc1−/Δ mice) | overall aging score (Ercc1−/Δ mice)
CC(C)C[C@@H](/C=C/CC(=O)NC1CC(C)(C)N([O])C(C)(C)C1)NC(=O)OC(C)(C)C [JP4-039, TEMPO-4-yl-(S,E)-5-(tert-butoxycarbonylamino)-7-methyloct-3-enamide] | also effective | much lower | enhanced | no signs of toxicity; also recorded: not toxic | – | – | – | – | – | – | – | – | – | –
CC(C)C[C@@H](/C=C/[C@H](Cc1ccccc1)C(=O)N1CCC[C@H]1C(=O)N[C@H](C(=O)N[C@@H](CCCNC(=O)OCc1ccccc1)C(=O)NC1CC(C)(C)N([O])C(C)(C)C1)C(C)C)NC(=O)OC(C)(C)C [XJB-5-131] | less effective | less effective | – | – | no effect | small effect | no effect | notably less | did not reduce the amount of apoptosis | reduce the number of γH2AX foci | did not lose weight; also recorded: does not cause weight loss | approximately 30 percent more | delayed | significantly improved
